Laboratory results reported in patent US20230242473A1, “THYROMIMETICS” (Autobahn Therapeutics, Inc., priority 2020, published 2023).

What was measured:
[1] = target: T1, recombinant human FAAH (rhFAAH) (Homo sapiens, UniProt O00519); test: FAAH substrate evaluation (formation of acid metabolite, LC-MS/MS); type: in vitro ADME; details: 0.5 ng/μL rhFAAH, 1 μM test compound, pH 8.0, room temperature, 0-60 minutes
T1 construct: purchased Cayman Chemical (Ann Arbor, Mich., USA)
T1 sequence (O00519 1-579): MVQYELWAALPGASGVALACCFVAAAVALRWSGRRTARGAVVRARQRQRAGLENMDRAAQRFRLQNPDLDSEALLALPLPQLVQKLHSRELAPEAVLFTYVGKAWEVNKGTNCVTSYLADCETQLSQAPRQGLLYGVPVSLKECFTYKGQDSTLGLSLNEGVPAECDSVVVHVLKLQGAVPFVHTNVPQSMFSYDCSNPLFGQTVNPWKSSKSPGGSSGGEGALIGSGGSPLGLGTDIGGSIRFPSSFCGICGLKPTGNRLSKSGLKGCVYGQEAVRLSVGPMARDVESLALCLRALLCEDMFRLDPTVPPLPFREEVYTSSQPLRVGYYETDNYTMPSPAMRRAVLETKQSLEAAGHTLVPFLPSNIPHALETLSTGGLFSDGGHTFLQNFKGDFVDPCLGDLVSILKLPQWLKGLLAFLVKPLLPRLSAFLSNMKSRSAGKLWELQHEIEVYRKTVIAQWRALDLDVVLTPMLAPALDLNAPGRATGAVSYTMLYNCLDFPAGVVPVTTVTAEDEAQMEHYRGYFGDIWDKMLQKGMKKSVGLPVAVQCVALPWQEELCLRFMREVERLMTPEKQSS
Method: Purified recombinant human FAAH (rhFAAH) was purchased from Cayman Chemical (Ann Arbor, Mich., USA). The total volume for each incubation was 400 μL containing a final 0.5 ng/μL rhFAAH, 1 μM test compound, 1.25% ethanol or 1 μM PF-3845 (FAAH inhibitor), and 0.1% bovine serum albumin in Tris-EDTA buffer at pH 8.0). The positive control was LL-341001. The incubation was conducted at the room temperature. At 0, 5, 15, 30 and 60 minutes, an aliquot of 30 μL reaction mixtures was removed and mixed with 300 μL acetonitrile containing 5 ng/mL terfenadine and 10 ng/mL tolbutamide as internal standards to quench the reaction. The resulting mixture was centrifuged at 4000 rpm, 4° C. for 15 minutes, and 100 μL supernatant was ready for LC-MS/MS analysis to measure the formation of acid metabolite.
Acquity Ultra Performance LC system from Waters was used for sample analysis. The chromatography was performed on a reverse phase Kinetex 2.6 μm C18 column, 2.1×30 mm, 100 Å. The mobile phase A comprised of 0.10% formic acid in water and mobile phase B comprised of 0.1% formic acid in acetonitrile with a 2-min run time at the flow rate of 0.8 mL/min for the acid metabolite from positive control or a 1.5 min run time at the flow rate of 0.9 mL/min for the acid metabolite of test compounds. The mass spectrometer (API-5500 and API Q Trap 4000 Applied Biosystems/MDS SCIEX Instruments, Framingham, Mass., USA) was operated under ESI positive or negative ion MRM mode.
The formation of acid metabolite was monitored and quantified using one calibration point of 1 μM. The observed rate constant (ke) for the acid metabolite formation was calculated by plotting the metabolite concentration versus time of incubation with the slope being ke and is shown in Table 4.

TRβ = target: T2, TRβ (Homo sapiens, UniProt P10828); test: Thyroid-hormone reporter-gene assay, TRβ (Gal4 hybrid, luciferase); type: cell-based; details: for EC50: HEK293-derived reporter cells, 24 hr treatment, luciferase readout; for T3-SI, selectivity index (SI) calculated as EC50 (TRα)/EC50 (TRβ): TRα vs TRβ reporter-gene assays
T2 construct: expressed in transfected cells; host or cells: HEK293-derived reporter cell line
T2 sequence (P10828 217-461 limits assumed): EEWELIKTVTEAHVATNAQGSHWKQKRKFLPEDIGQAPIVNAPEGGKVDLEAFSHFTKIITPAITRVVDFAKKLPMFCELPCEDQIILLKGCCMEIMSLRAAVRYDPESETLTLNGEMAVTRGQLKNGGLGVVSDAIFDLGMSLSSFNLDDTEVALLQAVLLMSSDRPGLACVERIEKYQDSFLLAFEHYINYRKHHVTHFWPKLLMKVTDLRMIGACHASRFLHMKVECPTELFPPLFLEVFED
Method: (§1) Compounds were tested for thyroid-hormone receptor activity using TR reporter-gene assays. Reporter cells used in the assays express a TR-receptor hybrid (either TRα or TRO) in which the native N-terminal DNA binding domain (DBD) has been replaced with that of the yeast Gal4 DBD. The reporter gene, firefly luciferase, is functionally linked to the Gal4 upstream activation sequence (UAS). Both cell lines were derived from human embryonic kidney (HEK293).
(§2) Step 1: A suspension of reporter cells was prepared in cell recovery medium containing 10% charcoal-stripped FBS, and dispensed into assay plates. The plates were pre-incubated for 6 hours in a cell culture incubator (37° C./5% CO2/85% humidity).
(§3) These intermediate stocks were subsequently diluted directly into compound screening medium containing 10% charcoal-stripped FBS to generate “2×-concentration” treatment media (containing 0.2, 0.4 or 0.8% DMSO).
(§4) Step 3: At the end of the pre-incubation period, culture media were discarded from the assay plates, and all wells received 100 μl of compound screening medium. 100 μl of each of the previously prepared “2×-concentration” treatment media were dispensed into duplicate assay wells, thereby achieving the desired final treatment concentrations. The final concentration of DMSO in all assay wells was 0.1, 0.2 or 0.4%. Assay plates were incubated for 24 hr in a cell culture incubator (37° C./5% CO2/85% humidity).
(§5) Step 4: At the 24 h assay endpoint, treatment media were discarded and 100 µl/well of luciferase detection reagent was added. Relative luminometer units (RLUs) were quantified from each assay well.

TRα = target: T3, TRα (Homo sapiens, UniProt P10827); test: Thyroid-hormone reporter-gene assay, TRα (Gal4 hybrid, luciferase); type: cell-based; details: HEK293-derived reporter cells, 24 hr treatment, luciferase readout
T3 construct: expressed in transfected cells; host or cells: HEK293-derived reporter cell line
T3 sequence (P10827 128-410 isoform P10827-2 limits assumed): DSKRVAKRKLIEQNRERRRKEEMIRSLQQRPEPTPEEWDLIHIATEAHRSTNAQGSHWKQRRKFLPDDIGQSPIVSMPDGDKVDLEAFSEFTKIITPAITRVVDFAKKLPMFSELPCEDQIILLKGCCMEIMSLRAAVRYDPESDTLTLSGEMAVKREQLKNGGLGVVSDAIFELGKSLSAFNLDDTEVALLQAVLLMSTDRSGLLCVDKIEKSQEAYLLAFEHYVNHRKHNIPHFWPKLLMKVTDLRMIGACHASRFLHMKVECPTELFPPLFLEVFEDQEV
Method: as §1, §2, §3, §4, §5

| Structure (SMILES) | ke, observed rate constant for the acid metabolite formation [1] | EC50 (TRβ) | T3-SI, selectivity index (SI) calculated as EC50 (TRα)/EC50 (TRβ) (TRβ) | EC50 (TRα) |
| --- | --- | --- | --- | --- |
| CNC(=O)COc1cc(Cl)c(Cc2ccc(O)c(C(C)C)c2F)cc1F [Compound 39, 2-(5-chloro-2-fluoro-4-(2-fluoro-4-hydroxy-3-isopropylbenzyl)phenoxy)-N-methylacetamide] | A (A = ke is less than 2.0 and more than or equal to 0.05) |  |  |  |
| C=C(C)c1cc(OCC(=O)NC)ccc1Cc1ccc(O)c(C(C)C)c1F [Compound 41, 2-(4-(2-fluoro-4-hydroxy-3-isopropylbenzyl)-3-(prop-1-en-2-yl)phenoxy)-N-methylacetamide] | A (A = ke is less than 2.0 and more than or equal to 0.05) |  |  |  |
| CC(C)c1cc(Cc2cc(F)c(OCC(=O)N(C)C)cc2C(C)C)ccc1O [Compound 48, 2-(2-fluoro-4-(4-hydroxy-3-isopropylbenzyl)-5-isopropylphenoxy)-N,N-dimethylacetamide] | A (A = ke is less than 2.0 and more than or equal to 0.05) |  |  |  |
| CNC(=O)COc1cc(C)c(Cc2ccc(O)c(C(C)C)c2F)c2c1CCC2 [Compound 11, 2-((7-(2-fluoro-4-hydroxy-3-isopropylbenzyl)-6-methyl-2,3-dihydro-1H-inden-4-yl)oxy)-N-methylacetamide] | A (A = ke is less than 2.0 and more than or equal to 0.05) |  |  |  |
| CC(C)c1cc(Cc2ccc(OCC(=O)O)c3ccccc23)ccc1O [Compound 14, 2-((4-(4-hydroxy-3-isopropylbenzyl)naphthalen-1-yl)oxy)acetic acid] |  | 0.1 to 1 µM | ++ (++3X<T3−SI≤30X) | > 1 µM |
| CC(C)c1c(O)ccc(Cc2ccc(OCC(=O)O)cc2Cl)c1F [Compound 20, 2-(3-chloro-4-(2-fluoro-4-hydroxy-3-isopropylbenzyl)phenoxy)acetic acid] |  | 0.1 to 1 µM | ++ (++3X<T3−SI≤30X) | > 1 µM |
| CC(C)c1c(O)ccc(Cc2ccc(OCC(=O)O)c(F)c2C(C)C)c1F [Compound 31, 2-(2-fluoro-4-(2-fluoro-4-hydroxy-3-isopropylbenzyl)-3-isopropylphenoxy)acetic acid] |  | > 1 µM | ++ (++3X<T3−SI≤30X) | > 1 µM |
| CC(C)c1c(O)ccc(Cc2ccc(OCC(=O)O)c(F)c2Cl)c1F [Compound 27, 2-(3-chloro-2-fluoro-4-(2-fluoro-4-hydroxy-3-isopropylbenzyl)phenoxy)acetic acid] |  | > 1 µM |  | > 1 µM |
| CNC(=O)COc1cc(C(C)C)c(Cc2ccc(O)c(C(C)C)c2)cc1F [Compound 47, 2-(2-fluoro-4-(4-hydroxy-3-isopropylbenzyl)-5-isopropylphenoxy)-N-methylacetamide] | A (A = ke is less than 2.0 and more than or equal to 0.05) |  |  |  |
| CNC(=O)COc1ccc(Cc2ccc(O)c(C(C)C)c2F)c(C(C)C)c1 [Compound 43, 2-(4-(2-fluoro-4-hydroxy-3-isopropylbenzyl)-3-isopropylphenoxy)-N-methylacetamide] | A (A = ke is less than 2.0 and more than or equal to 0.05) |  |  |  |
